The values below come from PMC11502128 (Journal of Lipids, 2024).

SMILES strings stand for the structures. Like-named read-outs stand apart in the source and are kept apart here.

One data set deals with PPARγ gene. Briefly: qRT-PCR PPARγ mRNA expression in differentiated 3T3-L1 adipocytes. It is filed as cell-based, Mouse. The following applies: 100 μM, 3 days. As for the experimental part: (§1) The mRNA expression of selected lipogenic and lipolytic genes was quantified using qRT–PCR following the established protocol as described by Ndlovu et al.. […] The RNA was extracted with the […] RNA extraction kit. The RNA was then converted into cDNA using an iScript cDNA Synthesis Kit from […] following the manufacturer's protocols. qRT–PCR analysis was performed using Bio-Rad CFX Maestro software. All mRNA expression levels were standardized to ensure consistency using glyceraldehyde 3-phosphate dehydrogenase (GAPDH) as a reference gene. The primers used were designed using the BLAST NCBI online server (https://www.ncbi.nlm.nih.gov/tools/primer-blast/). Data was expressed as fold change relative to the untreated control.

Data set [1] concerns differentiated 3T3-L1 adipocytes. The data set can be described thus: Neutral lipid accumulation in differentiated 3T3-L1 adipocytes (NR staining). The format is cell-based, Mouse. The following applies: 100 μM, 3 days, differentiated 3T3-L1, relative to control. As for the experimental part: The differentiation of 3T3-L1 cells was performed as described by Ibrahim et al. with slight modifications. The preadipocyte cells were seeded at a concentration of 0.2 × 10^4 per 100 μL into each of the wells of a 96-well plate and were grown at 37°C with 5% CO2 for 3 days, until confluent. On Day 4, differentiation was induced by replacing the medium with 100 μL Differentiation Medium 1 (DM1, DMEM supplemented with final concentrations of 10 μg/mL insulin, 0.5 mM isobutyl methylxanthine, 1 μM dexamethasone, and 2 μM rosiglitazone) for further 3 days. On Day 8, DM1 was replaced with DM2 (DMEM with only 10 μg/mL insulin) for 3 days. […]
With NR staining, the accumulation of neutral lipids was assessed in the differentiated 3T3-L1 cells and OA-induced lipid accumulation in HepG2 cells following treatment with the triterpenoids. […] Background fluorescence was measured at an excitation and an emission wavelength of 485 nm and 590 nm (Ex4850 and Em590), respectively. […] The dye was extracted from the stained cells with 100 μL PBS, and the fluorescence was measured again at Ex450 and Em590. The difference in fluorescence between the extracted dye and background fluorescence was calculated. The percentage of intracellular lipid accumulation relative to the untreated control cells was calculated.

Data set [2] has as its system HepG2 cells. Briefly: Oleic acid-induced neutral lipid accumulation in HepG2 cells (NR staining). The format is cell-based, human. As to conditions: 100 μM, 48 h, HepG2 exposed to 1 mM oleic acid. As for the experimental part: (§2) The HepG2 cells were seeded in a 96-well plate at a cell density of 5 × 10^4 and left to attach overnight. The cells were incubated at 37°C, 5% CO2 for 48 h, and 1 mM OA (final concentration) to stimulate lipid accumulation. […] Control cells were exposed to either the vehicle control or sterile PBS.
With NR staining, the accumulation of neutral lipids was assessed in the differentiated 3T3-L1 cells and OA-induced lipid accumulation in HepG2 cells following treatment with the triterpenoids. The cells were washed with PBS and fixed with 4% formaldehyde for 1 h, and then the cells were stained with the NR staining solution (100 μM in 100% DMSO) in the dark for 3 h. Background fluorescence was measured at an excitation and an emission wavelength of 485 nm and 590 nm (Ex4850 and Em590), respectively. The dye solution was then discarded, the wells were then rinsed with PBS, and the plate was blotted dry. The dye was extracted from the stained cells with 100 μL PBS, and the fluorescence was measured again at Ex450 and Em590. The difference in fluorescence between the extracted dye and background fluorescence was calculated. The percentage of intracellular lipid accumulation relative to the untreated control cells was calculated.

Data set [3] relates to HepG2 cells. Briefly: Cell viability assessment (crystal violet), HepG2. It is filed as cell-based, human. As to conditions: triterpenoids at 25 and 100 μM; lovastatin 50 μM. As for the experimental part:
The 3T3-L1 and HepG2 cells (at 70%–80% confluence) were seeded at concentrations of 0.2 × 10^4 per 100 μL and 5.0 × 10^4 per 100 μL, respectively, in a 96-well plate. […] Control cells were exposed to either 0.01% methanol (vehicle control) or sterile phosphate buffered saline (PBS) pH 7.4. Following the exposure, the cells were fixed with 20% formalin (final concentration 2% [v/v]) at 37°C for 30 min. The solution was discarded, and the plate was blotted dry. The cells were stained with the addition of 100 μL f CV (0.1% in 200 mM formic acid) to each well. After 30 min at room temperature, the dye solution was removed, and the plate was washed well with tap water and dried. The dye was then extracted from the stained cells with 100 μL of a 10% (v/v) acetic acid solution. The absorbance was measured at 630 nm, and the results were expressed as percentage cell viability relative to the control (cells treated with PBS).

The next data set deals with AMPK gene. The data set can be described thus: qRT-PCR AMPK mRNA expression in differentiated 3T3-L1 adipocytes. The format is cell-based, Mouse. As to conditions: 100 μM, 3 days, not significant versus control. As for the experimental part:
as §1

In another data set the test system is C/EBPα gene. Briefly: qRT-PCR C/EBPα mRNA expression in differentiated 3T3-L1 adipocytes. It is filed as cell-based, Mouse. As to conditions: 100 μM, 3 days. As for the experimental part:
as §1

Data set [4] deals with differentiated 3T3-L1 adipocytes. Briefly: Intracellular lipid accumulation in differentiated 3T3-L1 adipocytes (ORO staining). It is filed as cell-based, Mouse. As to conditions: 100 μM, 3 days, differentiated 3T3-L1, relative to control. As for the experimental part: The differentiation of 3T3-L1 cells was performed as described by Ibrahim et al. with slight modifications. The preadipocyte cells were seeded at a concentration of 0.2 × 10^4 per 100 μL into each of the wells of a 96-well plate and were grown at 37°C with 5% CO2 for 3 days, until confluent. On Day 4, differentiation was induced by replacing the medium with 100 μL Differentiation Medium 1 (DM1, DMEM supplemented with final concentrations of 10 μg/mL insulin, 0.5 mM isobutyl methylxanthine, 1 μM dexamethasone, and 2 μM rosiglitazone) for further 3 days. On Day 8, DM1 was replaced with DM2 (DMEM with only 10 μg/mL insulin) for 3 days. Finally, DM2 was replaced with only DMEM, and the cells were exposed to the different concentrations (1–100 μM) of the test compounds for a further 3 days. Control cells were exposed to either the vehicle control or sterile PBS.
The ORO staining technique was used to detect lipid droplets in both differentiated adipocytes and OA-exposed hepatocytes. […] The ORO dye was then extracted with 60% isopropanol, and the absorbance was measured at 405 nm. For the 3T3-L1 cells, the percentage of lipid accumulation was relative to the control cells (PBS-treated) cells, with 100% lipid formation, while for HepG2, the results were expressed as the percentage of lipid accumulation relative to cells exposed to OA.

Data set [5] has as its target T1, porcine PNLIP (pancreatic lipase) (Sus scrofa, UniProt P00591).
T1 sequence (P00591 1-450): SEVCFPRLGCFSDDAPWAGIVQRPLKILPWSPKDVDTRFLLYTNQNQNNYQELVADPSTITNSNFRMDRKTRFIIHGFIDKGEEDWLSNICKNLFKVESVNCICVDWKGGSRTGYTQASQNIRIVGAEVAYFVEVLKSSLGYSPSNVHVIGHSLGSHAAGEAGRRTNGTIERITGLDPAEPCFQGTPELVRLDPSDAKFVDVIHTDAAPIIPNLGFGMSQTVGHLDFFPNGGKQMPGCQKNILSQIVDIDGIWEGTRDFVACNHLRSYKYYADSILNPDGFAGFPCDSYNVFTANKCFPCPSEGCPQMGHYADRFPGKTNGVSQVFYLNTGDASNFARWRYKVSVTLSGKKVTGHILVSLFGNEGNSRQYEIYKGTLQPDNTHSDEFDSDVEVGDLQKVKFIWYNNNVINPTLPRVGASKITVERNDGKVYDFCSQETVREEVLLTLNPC
The data set can be described thus: PNLIP inhibition and enzyme kinetics with p-nitrophenyl palmitate. The format is biochemical. The following applies: for Pancreatic lipase Mode of inhibition: Lineweaver–Burk plot. As for the experimental part: The PNLIP inhibitory activity of the compounds was tested using p-nitrophenyl palmitate (p-NPP) as an artificial substrate. […] The reaction was initiated by adding 10 mM p-NPP at 37°C for 20 min. Then, the enzyme activity was determined calorimetrically by measuring the release of p-nitrophenol measured at 405 nm using a SpectraMax paradigm microplate reader (Molecular Devices Inc, San Jose, California). The IC50 values were determined using nonlinear regression from the absorbance versus concentration curves.
The modes of enzyme inhibition were determined using the reaction protocol described above. While all the other parameters remained unchanged, the enzyme activity was measured at increasing substrate concentrations (2–10 mM) in the presence and absence of the test compound (inhibitor). Double reciprocal (Lineweaver–Burk) plots were generated and used to determine the inhibition types Km and Vmax. The inhibitory constants (Ki) of the test compounds were also calculated.

For data set [6], the system named is differentiated 3T3-L1 cells. Briefly: Glycerol release from isoproterenol-stimulated differentiated adipocytes (lipolysis). The format is cell-based, Mouse. As to conditions: 100 μM, 3 days, then 100 nM isoproterenol 3 h. As for the experimental part:
Subsequently, the cells were exposed to isoproterenol (final concentration of 100 nM) for 3 h to stimulate lipolysis. The glycerol levels released into the medium were used as a measure of lipolysis evaluated using a commercial lipolysis colorimetric assay kit (MAK211) according to the manufacturer's instructions. Cell viability of the lipolysis-induced adipocytes was determined with CV staining.

In data set [7] the test system is HepG2 cells. The data set can be described thus: Oleic acid-induced hepatic lipid accumulation in HepG2 cells (ORO staining). It is filed as cell-based, human. As to conditions: 100 μM, 48 h, HepG2 exposed to 1 mM oleic acid. As for the experimental part: as §2
The ORO staining technique was used to detect lipid droplets in both differentiated adipocytes and OA-exposed hepatocytes. The cells were fixed with 2% (v/v) formaldehyde for 30 min at 37°C. The formaldehyde was then discarded, and the plates were air-dried. The fixed cells were stained with ORO staining solution (three parts of 0.5% ORO (w/v) in 60% isopropyl alcohol and two parts of water) for 1 h. After staining, the excess ORO was discarded, and the plates were rinsed with water and dried. Microscopic images were acquired with an Olympus microscope (Olympus, Tokyo, Japan). The ORO dye was then extracted with 60% isopropanol, and the absorbance was measured at 405 nm. For the 3T3-L1 cells, the percentage of lipid accumulation was relative to the control cells (PBS-treated) cells, with 100% lipid formation, while for HepG2, the results were expressed as the percentage of lipid accumulation relative to cells exposed to OA.

A further data set deals with HSL gene. The data set can be described thus: qRT-PCR HSL mRNA expression in differentiated 3T3-L1 adipocytes. The format is cell-based, Mouse. As to conditions: 100 μM, 3 days. As for the experimental part: as §1

As for `C/C(=C/CC[C@H](C(=O)O)C1CC[C@]2(C)C3=CCC4C(C)(C)[C@H](O)CC[C@]4(C)C3CC[C@@]12C)CO` (stereo partly drawn) [ARM-2, 3α,26-dihydroxytirucalla-7,24-dien-21-oic acid], the “reduction of PPARγ gene expression” value in the data set with PPARγ gene is 59.30%. Besides, the “reduction in neutral lipid accumulation (NR staining)” value (“reduction … (NR staining)” for short) in data set [1] is 19.27%; in the data set with HepG2 cells [2], 40%. Moreover, the “cytotoxicity in the HepG2 model (abstract)” value in the data set with HepG2 cells [3] is “lacked cytotoxicity”. Further, the “increase in the expression of the AMPK gene” value in the data set on AMPK gene was 39.10%. Besides, the “reduction of C/EBPα gene expression” value with C/EBPα gene was 55.65%. Besides, the “decrease in lipid accumulation (ORO staining)” value in data set [4] was 22.21%. Besides, the “Pancreatic lipase Mode of inhibition” value in data set [5] is reported as “Noncompetitive”. Further, in data set [5] (Lineweaver–Burk, substrate 2–10 mM, mean ± SEM (n = 3), read-out: Pancreatic lipase Ki), the Ki was determined as 52.9 ± 7.19 µM. Besides, in data set [5] (porcine PNLIP, p-NPP substrate, pH 7.4, 37°C, mean ± SEM (n = 3), read-out: Pancreatic lipase IC50), the IC50 is 35.8 ± 12.4 µM. The “decrease in glycerol release” value in data set [6] was determined as 36.47%. Moreover, the “reduction of OA-induced lipid accumulation (ORO staining)” value in the data set with HepG2 cells [7] was determined as 31.56%. In the data set with HSL gene, the “reduction of HSL gene expression” value is listed as 60.38%.
As to `CCCCCCCCCCC[C@@H](C[C@@H]1OC(=O)[C@H]1CCCCCC)OC(=O)[C@H](CC(C)C)NC=O` [Orlistat, orlistat, reference compound], in [5], the “Pancreatic lipase Mode of inhibition” value is recorded as “Uncompetitive”.
Take `CC(C)=CCCC(C(=O)O)C1CCC2(C)C3CCC4C(C)(CCC(O)C4(C)C)C3=CCC12C` (stereo not drawn) [RA-5, 3β-hydroxylanosta-9,24-dien-21-oic acid]: the “reduction of PPARγ gene expression” value in the data set on PPARγ gene was 77.40%. In [1], the “reduction … (NR staining)” value is recorded as 10.37%. In addition, the “reduction … (NR staining)” value in the data set on HepG2 cells [2] amounted to 39%. In the data set on HepG2 cells [3], the “cytotoxicity in the HepG2 model (abstract)” value was “lacked cytotoxicity”. The “increase in the expression of the AMPK gene” value in the data set on AMPK gene is listed as 28.05%. Besides, the “reduction of C/EBPα gene expression” value with C/EBPα gene is given as 49.72%. Also, in [4], the “decrease in lipid accumulation (ORO staining)” value is given as 20.67%. Moreover, in data set [5], the half-maximal inhibitory concentration (IC50) amounted to 27.6 ± 8.51 µM, affinity was put at a Ki of 28.7 ± 8.84 µM and the “Pancreatic lipase Mode of inhibition” value was “mixed type of inhibition”. The “decrease in glycerol release” value in data set [6] is 34.72%. For the same compound, the “reduction of OA-induced lipid accumulation (ORO staining)” value in the data set with HepG2 cells [7] came out at 23.47%. Also, the “reduction of HSL gene expression” value in the data set with HSL gene came out at 66.54%.
